According to the NIST ThermoML archive (doi:10.1016/j.jct.2013.09.006):

Legend:
[1] = 101.33 kPa, Liquid; for viscosity: Capillary tube (Ostwald / Ubbelohde) method; for mass density: Vibrating tube method
[2] = refractive index (Na D-line) (dimensionless); conditions: 101.33 kPa, Liquid, Standard Abbe refractometry

CCO [ethanol]
Conditions | mass density, 298.15 K [kg/m3] | mass density, 303.15 K [kg/m3] | mass density, 308.15 K [kg/m3] | refractive index, 298.15 K | refractive index, 303.15 K | refractive index, 308.15 K | viscosity, 298.15 K [mPa·s] | viscosity, 303.15 K [mPa·s] | viscosity, 308.15 K [mPa·s]
[1] | 785.9 | 780.2 | 776.5 | – | – | – | 1.09 | 0.95 | 0.87
[2] | – | – | – | 1.3593 | 1.3573 | 1.3556 | – | – | –
